How the values were obtained:
Tetranychus urticae = Tetranychus urticae spray test, OP-resistant; assay type: in vivo; conditions: after 6 days, spider mites killed
Description: Tetranychus urticae-Spray Test, OP-Resistant
(§1) Solvent: 78.0 parts by weight of acetone
(§2) • 1.5 parts by weight of dimethylformamide Emulsifier: alkylaryl polyglycol ether
(§3) To produce a suitable preparation of active compound, 1 part by weight of active compound is dissolved using the stated parts by weight of solvent and made up with water containing an emulsifier concentration of 1000 ppm until the desired concentration is attained. To produce further test concentrations, the preparation is diluted with emulsifier-containing water.
Discs of bean leaves (Phaseolus vulgaris) infested with all stages of the greenhouse red spider mite (Tetranychus urticae) are sprayed with an active compound preparation of the desired concentration.
After 6 days, the efficacy in % is determined. 100% means that all the spider mites have been killed; 0% means that no spider mites have been killed.

[1] = log P by HPLC on reversed-phase column (C18), EEC Directive 79/831 Annex V.A8
Source text: Called log P (HCOOH) in the table.
Called log P (neutral) in the table.

Myzus persicae = Myzus persicae spray test (Chinese cabbage leaf discs); assay type: in vivo; conditions: after 6 days, aphids killed; for pest or weed control at 500 g/ha / efficacy in %: 500 g/ha
Description: Myzus persicae Spray Test
Solvent: 78 parts by weight of acetone
as §2, §3
Discs of Chinese cabbage leaves (Brassica pekinensis) infested by all stages of the green peach aphid (Myzus persicae) are sprayed with an active compound preparation of the desired concentration.
After 6 days, the efficacy in % is determined. 100% means that all the aphids have been killed; 0% means that no aphids have been killed.

Phaedon cochleariae = Phaedon cochleariae spray test; assay type: in vivo; conditions: after 7 days, beetle larvae killed; for pest or weed control at 500 g/ha: Phaedon cochleariae, 168 h, read-out: efficacy in %
Description: Phaedon cochleariae-Spray Test
as §1, §2, §3
After 7 days, the efficacy in % is determined. 100% means that all the beetle larvae have been killed; 0% means that no beetle larvae have been killed.

Spodoptera frugiperda = Spodoptera frugiperda spray test; assay type: in vivo; conditions: 500 g/ha, after 7 days, caterpillars killed
Description: Spodoptera frugiperda-Spray Test Solvent: 78.0 parts by weight of acetone • • 1.5 parts by weight of dimethylformamide Emulsifier: alkylaryl polyglycol ether […] To produce further test concentrations, the preparation is diluted with emulsifier-containing water. Leaf disks of maize (Zea mays) are sprayed with an active compound preparation of the desired concentration and, after drying, populated with caterpillars of the armyworm (Spodoptera frugiperda).

Musca domestica = Musca domestica test; assay type: in vivo; conditions: 100 ppm, after 2 days, adult houseflies
Description: (§4) Solvent: dimethyl sulphoxide
(§5) To produce a suitable preparation of active compound, 10 mg of active compound are mixed with 0.5 ml of dimethyl sulphoxide, and the concentrate is diluted with water to the desired concentration.
Vessels containing a sponge treated with sugar solution and the active compound preparation of the desired concentration are populated with 10 adult houseflies (Musca domestica).
After 2 days, the kill in % is determined. 100% means that all of the flies have been killed; 0% means that none of the flies have been killed.

Ctenocephalides felis = Ctenocephalides felis oral test; assay type: in vivo; conditions: 100 ppm, after 2 days
Description: Ctenocephalides felis-Oral Test
as §4
To produce a suitable preparation of active compound, 10 mg of active compound are mixed with 0.5 ml of dimethyl sulphoxide. Dilution with citrated cattle blood gives the desired concentration.
About 20 unfed adult cat fleas (Ctenocephalides felis) are placed into a chamber which is closed at the top and bottom with gauze. A metal cylinder whose bottom end is closed with parafilm is placed onto the chamber. The cylinder contains the blood/active compound preparation, which can be imbibed by the fleas through the parafilm membrane.
After 2 days, the kill in % is determined. 100% means that all of the fleas have been killed; 0% means that none of the fleas have been killed.

Lucilia cuprina = Lucilia cuprina test; assay type: in vivo; conditions: 100 ppm, after 2 days, L1 larvae
Description: as §4, §5
About 20 L1 larvae of the Australian sheep blowfly (Lucilia cuprina) are transferred into a test vessel containing minced horsemeat and the active compound preparation of the desired concentration.
After 2 days, the kill in % is determined. 100% means that all the larvae have been killed; 0% means that no larvae have been killed.

Meloidogyne incognita = Meloidogyne incognita test; assay type: in vivo; conditions: 20 ppm, after 14 days, formation of galls
Description: Meloidogyne incognita-Test
Solvent: 125.0 parts by weight of acetone
To produce a suitable preparation of active compound, 1 part by weight of active compound is mixed with the stated amount of solvent and the concentrate is diluted with water to the desired concentration.
Vessels are filled with sand, active compound solution, an egg/larvae suspension of the southern root-knot nematode (Meloidogyne incognita) and lettuce seeds. The lettuce seeds germinate and the plants develop. The galls develop on the roots.
After 14 days, the nematicidal efficacy in % is determined by the formation of galls. 100% means that no galls were found; 0% means that the number of galls on the treated plants corresponds to the untreated control.

[2] = reversed-phase HPLC column (C18), pH 2.7, logP-acidic, LC-MS acidic range, pH 2.7 (HCOOH), C18, 55° C.
[3] = reversed-phase HPLC column (C18), pH 7.8, log P (neutral), preparation examples, neutral range, pH 7.8
[4] = reversed-phase HPLC column (C18), pH 7.8, logP-neutral, LC-MS neutral range, pH 7.8, C18, 55° C.
[5] = Myzus persicae, foliar, 144 h, read-out: efficacy in %
[6] = LC-MS acidic range, pH 2.7 (HCOOH), C18, 55° C.
[7] = LC-MS neutral range, pH 7.8, C18, 55° C.

Structure (SMILES) | efficacy in % (Tetranychus urticae; 500 g/ha) [%] | logP-acidic ([1]; pH 2.7) | logP-neutral ([1]; pH 7.8) | efficacy in % (Phaedon cochleariae; 500 g/ha) [%] | efficacy in % (Myzus persicae) [%] | also measured
CCS(=O)(=O)c1ccc(C(=S)NC)nc1-c1nc2cc(C(F)(F)F)ncc2n1C [Example 34, 5-(Ethylsulphonyl)-N-methyl-6-[3-methyl-6-(trifluoromethyl)-3H-imidazo[4,5-c]pyridin-2-yl]pyridine-2-carbothioamide] | 100 |  |  |  |  | chromatographic logP [1, 2]: 2.8; chromatographic logP [1, 3]: 2.76; chromatographic logP [1, 4]: 2.76; pest or weed control at 500 g/ha (Myzus persicae; [5]): 90%
CCS(=O)(=O)c1ccc(NS(=O)(=O)C(F)(F)F)nc1-c1nc2cc(C(F)(F)F)ncc2n1C [Example 58] | 90 | 2.37 | 1.20 |  |  | 
CCS(=O)(=O)c1ccc(N)nc1-c1nc2cc(C(F)(F)C(F)(F)F)ncc2n1C [Example 67] | 100 | 2.14 | 2.14 | 100 | 90 | efficacy in % (Spodoptera frugiperda): 100%
CCS(=O)(=O)c1ccc(NC(=O)C(F)(F)C(F)F)nc1-c1nc2cc(C(F)(F)F)ncc2n1C [Example 8] |  | 2.80 | 2.12 | 100 | 90 | kill in % (Musca domestica): 100%; kill in % (Ctenocephalides felis): 100%; kill in % (Lucilia cuprina): 100%
CCS(=O)(=O)c1ccc(N(C)C)nc1-c1nc2cc(C(F)(F)F)ncc2n1C [Example 64] |  |  |  | 100 | 90 | logP-acidic [1, 6]: 2.55; logP-neutral [1, 7]: 2.49; efficacy in % (Spodoptera frugiperda): 100%
CCS(=O)(=O)c1ccc(C(=O)NC)nc1-c1nc2cc(C(F)(F)F)ncc2n1C [Example 31, 5-(Ethylsulphonyl)-N-methyl-6-[3-methyl-6-(trifluoromethyl)-3H-imidazo[4,5-c]pyridin-2-yl]pyridine-2-carboxamide] | 100 |  |  |  |  | chromatographic logP [1, 2]: 2.01; chromatographic logP [1, 3]: 1.96; chromatographic logP [1, 4]: 1.96; pest or weed control at 500 g/ha (Phaedon cochleariae; 500 g/ha): 100%; pest or weed control at 500 g/ha (Myzus persicae; [5]): 100%
CCS(=O)(=O)c1ccc(N(C)NC)nc1-c1nc2cc(C(F)(F)F)ncc2n1C [Example 60, 1-[5-Ethylsulphonyl-6-[3-methyl-6-(trifluoromethyl)imidazo[4,5-c]pyridin-2-yl]-2-pyridyl]-1,2-dimethylhydrazine] |  |  |  |  |  | efficacy in % (Tetranychus urticae; 100 g/ha): 90%; chromatographic logP ([1]; pH 2.7): 2.37; chromatographic logP ([1]; pH 7.8): 2.39; pest or weed control at 500 g/ha (Phaedon cochleariae; 500 g/ha): 100%; pest or weed control at 100 g/ha (Myzus persicae; Myzus persicae, foliar, 144 h, 100 g/ha, read-out: efficacy in %): 90%
CCS(=O)(=O)c1ccc(C(=O)NC2CC2)nc1-c1nc2cc(C(F)(F)F)ncc2n1C [Example 33] | 90 | 2.34 | 2.27 |  |  | efficacy in % (Phaedon cochleariae; 100 g/ha): 83%
CCS(=O)(=O)c1ccc(N(C)N)nc1-c1nc2cc(C(F)(F)F)ncc2n1C [Example 74] | 90 |  |  | 100 | 90 | logP-acidic [1, 6]: 1.96
CCNc1ccc(S(=O)(=O)CC)c(-c2nc3cc(C(F)(F)F)ncc3n2C)n1 [Example 56] | 90 |  |  | 100 | 100 | nematicidal efficacy in % (Meloidogyne incognita): 100%; logP-acidic [1, 6]: 2.37; logP-neutral [1, 7]: 2.35
CCOc1ccc(S(=O)(=O)CC)c(-c2nc3cc(C(F)(F)F)ncc3n2C)n1 [Example 10, 2-[6-Ethoxy-3-(ethylsulphonyl)pyridin-2-yl]-3-methyl-6-(trifluoromethyl)-3H-imidazo[4,5-c]pyridine] |  |  |  |  |  | kill in % (Musca domestica): 90%; chromatographic logP [1, 2]: 2.94; chromatographic logP [1, 3]: 2.86; chromatographic logP [1, 4]: 2.86; pest or weed control at 500 g/ha (Phaedon cochleariae; 500 g/ha): 100%; pest or weed control at 500 g/ha (Myzus persicae; [5]): 90%; efficacy in % (Spodoptera frugiperda): 83%; kill in % (Lucilia cuprina): 100%
CCS(=O)(=O)c1ccc(NC(=O)COC)nc1-c1nc2cc(C(F)(F)F)ncc2n1C [Example 21] |  | 2.22 | 2.17 | 100 | 90 | efficacy in % (Spodoptera frugiperda): 100%
CCS(=O)(=O)c1ccc(NC(=O)C(F)F)nc1-c1nc2cc(C(F)(F)F)ncc2n1C [Example 24] | 90 | 2.34 | 2.22 | 100 | 100 | 
CCS(=O)(=O)c1ccc(NC(C)=O)nc1-c1nc2cc(C(F)(F)C(F)(F)F)ncc2n1C [Example 62] | 90 | 2.54 | 2.47 | 100 |  | nematicidal efficacy in % (Meloidogyne incognita): 90%; efficacy in % (Spodoptera frugiperda): 100%
CCS(=O)(=O)c1ccc(NC(=O)C(C)CSC)nc1-c1nc2cc(C(F)(F)F)ncc2n1C (stereo not drawn) [Example 65] |  | 2.94 | 2.78 | 100 | 100 | nematicidal efficacy in % (Meloidogyne incognita): 100%
CC[S+]([O-])c1ccc(S(=O)(=O)CC)c(-c2nc3cc(C(F)(F)F)ncc3n2C)n1 (stereo not drawn) [Example 37, 2-[6-(Ethylsulphinyl)-3-(ethylsulphonyl)pyridin-2-yl]-3-methyl-6-(trifluoromethyl)-3H-imidazo[4,5-c]pyridine] |  |  |  |  |  | chromatographic logP [1, 2]: 2.03; chromatographic logP [1, 3]: 2.02; chromatographic logP [1, 4]: 2.02; pest or weed control at 500 g/ha (Phaedon cochleariae; 500 g/ha): 100%; pest or weed control at 500 g/ha (Myzus persicae; [5]): 90%
CCS(=O)(=O)c1ccc(NC(=O)CC2CC2)nc1-c1nc2cc(C(F)(F)F)ncc2n1C [Example 7] |  | 2.71 | 2.66 | 100 | 90 | 
CCS(=O)(=O)c1ccc(SC(C)C)nc1-c1nc2cc(C(F)(F)F)ncc2n1C [Example 29] |  |  |  |  |  | nematicidal efficacy in % (Meloidogyne incognita): 90%; logP-acidic [1, 6]: 3.62; logP-neutral [1, 7]: 3.53
CCC(=O)Nc1ccc([S+]([O-])CC)c(-c2nc3cc(C(F)(F)F)ncc3n2C)n1 (stereo not drawn) [Example 2] |  | 2.33 | 2.25 | 100 | 90 | 
CCS(=O)(=O)c1ccc(OC(C)C)nc1-c1nc2cc(C(F)(F)F)ncc2n1C [Example 18] |  | 3.31 | 3.22 |  |  | nematicidal efficacy in % (Meloidogyne incognita): 90%

Source: US10654845B2, “2-(het)aryl-substituted fused bicyclic heterocycle derivatives as pesticides” (BAYER CROPSCIENCE AKTIENGESELLSCHAFT, priority 2015, dated 2020)
